From article PMC7785020, “A unique hormonal recognition feature of the human glucagon-like peptide-2 receptor” (Cell Research, 2020) come the findings set out here.

For one test, the target named is T1, GLP-2R Y252^ECL1A (Homo sapiens, UniProt O95838, Y252A).
T1 sequence (O95838 1-553 Y252A): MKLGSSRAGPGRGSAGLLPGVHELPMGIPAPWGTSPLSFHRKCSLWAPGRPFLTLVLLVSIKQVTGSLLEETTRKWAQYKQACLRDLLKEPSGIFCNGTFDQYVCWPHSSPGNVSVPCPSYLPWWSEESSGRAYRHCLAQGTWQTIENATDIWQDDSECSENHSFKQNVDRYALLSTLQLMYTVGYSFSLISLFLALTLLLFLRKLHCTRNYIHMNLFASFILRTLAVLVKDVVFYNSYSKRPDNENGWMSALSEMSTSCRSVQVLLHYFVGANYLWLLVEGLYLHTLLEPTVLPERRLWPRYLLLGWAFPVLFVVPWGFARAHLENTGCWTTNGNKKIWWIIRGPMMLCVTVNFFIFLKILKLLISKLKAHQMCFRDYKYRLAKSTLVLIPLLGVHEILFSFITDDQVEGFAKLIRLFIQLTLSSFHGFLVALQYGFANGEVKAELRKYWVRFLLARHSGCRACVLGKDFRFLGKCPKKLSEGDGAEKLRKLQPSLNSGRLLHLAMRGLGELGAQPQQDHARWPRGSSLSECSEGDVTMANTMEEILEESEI
As to the kind of experiment: cAMP accumulation, Y252^ECL1A. Type of test: cell-based. Details: WT (1–553); expressed in transfected cells; HEK 293T (cAMP). The conditions noted are these: HEK 293T, 30 min, RT, mean ± SEM, n ≥ 3 in duplicate; for Emax: HEK-293T, read-out: cAMP Emax (% WT); for EC50: read-out: cAMP pEC50 (converted). Here is the method:
They were seeded onto 6-well cell culture plates and transiently transfected with different GLP-2R constructs using Lipofectamine 2000 transfection reagent (Invitrogen, Carlsbad, CA, USA). After 24 h, the transfected cells were seeded onto 384-well microtiter plates (3000 cells per well) in HBSS supplemented with 5 mM HEPES, 0.1% (w/v) bovine serum albumin (BSA) and 0.5 mM 3-isobutyl-1- methylxanthine, and stimulated with increasing concentrations of GLP-2 for 30 min at RT. Eu and Ulight were diluted by cAMP detection buffer and added to the plates separately to terminate the reaction. Plates were incubated at RT for 60 min before measuring the fluorescence intensity at 620 nm and […] by an EnVision multilabel plate reader (PerkinElmer, Boston, USA).

The next test addresses T2, GLP-2R Y182^1.43A (Homo sapiens, UniProt O95838, Y182A).
T2 sequence (O95838 1-553 Y182A): T1 sequence (O95838 1-553 Y252A) with Y182A, A252Y
As to the kind of experiment: radioligand competition binding, Y182^1.43A. Particulars: COS-7, Y182^1.43A; [^125I]GLP-2(1–33, M10Y) 10–15 pM, 4 h, 4 °C; mean ± SEM, n ≥ 3 in duplicate. Details: WT (1–553); expressed in transfected cells. Here is the method: A stepwise oxidation reaction was performed by addition of 6 aliquots of 5 µL ChloramineT (30 µL/mL) with a 1-min interval during constant stirring. The reaction was terminated by the addition of 400 µL phase A (0.1% trifluoracetic acid) before being fractionated into 1 mL volume by reverse-phase high-performance liquid chromatography (RP-HPLC, Waters 600 SimiPrep system) on a C18 column. The iodinated protein was […] by increasing concentrations of phase B (Acetonitrile + 0.1% TFA) and tested for competitive binding ability.
One day before transfection, the COS-7 cells were seeded in 75 cm^2 culture flasks (3 million cells/flask) in DMEM, containing 3.9 g/L NaHCO3 and supplemented with 10% FBS, 1% L-glutamine, 180 units/mL penicillin and 45 µg/mL streptomycin. After an overnight culture at 37 °C, 10% CO2 and 95% air humidity, the cells were transiently transfected with different GLP-2R constructs or pcDNA3.1 vector as previously described.[52] Following 24-h incubation, the cells were transferred to Costa® microtiter plates (150,000 cells/well, PerkinElmer) to achieve a 5%–10% specific binding. […] The cells were then washed twice in binding buffer (4 °C), lysed and counted for radioactivity using a Wallac Gamma Counter (PerkinElmer).

Where a chain is given by its changes, count along the chain named. Read-outs that look alike come from different tables or passages of the source. No end group written: not given here.

For “HAEGTFSDEMNTILDNLAARDFINWLIQTKITD [Chimeric GLP-1/GLP-2 (1-6)]”, at GLP-2R Y252^ECL1A (Table S5, Y252A), the Emax was determined as 103 ± 3.1% and the EC50 is 6.31 nM.

As for `CC[C@H](C)[C@H](NC(=O)[C@H](Cc1ccccc1)NC(=O)[C@H](CC(=O)O)NC(=O)[C@H](CCCNC(=N)N)NC(=O)[C@H](C)NC(=O)[C@H](C)NC(=O)[C@H](CC(C)C)NC(=O)[C@H](CC(N)=O)NC(=O)[C@H](CC(=O)O)NC(=O)[C@H](CC(C)C)NC(=O)[C@@H](NC(=O)[C@@H](NC(=O)[C@H](CC(N)=O)NC(=O)[C@H](CCSC)NC(=O)[C@H](CCC(=O)O)NC(=O)[C@H](CC(=O)O)NC(=O)[C@H](CO)NC(=O)[C@H](Cc1ccccc1)NC(=O)[C@H](CO)NC(=O)CNC(=O)[C@H](CC(=O)O)NC(=O)[C@H](C)NC(=O)[C@@H](N)Cc1c[nH]cn1)[C@@H](C)O)[C@@H](C)CC)C(=O)N[C@@H](CC(N)=O)C(=O)N[C@@H](Cc1c[nH]c2ccccc12)C(=O)N[C@@H](CC(C)C)C(=O)N[C@H](C(=O)N[C@@H](CCC(N)=O)C(=O)N[C@H](C(=O)N[C@@H](CCCCN)C(=O)N[C@H](C(=O)N[C@H](C(=O)N[C@@H](CC(=O)O)C(=O)O)[C@@H](C)O)[C@@H](C)CC)[C@@H](C)O)[C@@H](C)CC` [Human GLP-2 (1–33)], the Emax came out at 103 ± 2.6% at GLP-2R Y252^ECL1A (Table S3, Y252A) and 102 ± 2.2% at GLP-2R Y252^ECL1A (Table S5, Y252A). At GLP-2R Y182^1.43A, the “% Binding of WT” value was 3.4 ± 1.0 %.

On to `CC[C@H](C)[C@H](NC(=O)[C@H](Cc1ccccc1)NC(=O)[C@H](CC(=O)O)NC(=O)[C@H](CCCNC(=N)N)NC(=O)[C@H](C)NC(=O)[C@H](C)NC(=O)[C@H](CC(C)C)NC(=O)[C@H](CC(N)=O)NC(=O)[C@H](CC(=O)O)NC(=O)[C@H](CC(C)C)NC(=O)[C@@H](NC(=O)[C@@H](NC(=O)[C@H](CC(N)=O)NC(=O)[C@H](CCSC)NC(=O)[C@H](CCC(=O)O)NC(=O)[C@H](CC(=O)O)NC(=O)[C@H](CO)NC(=O)[C@H](Cc1ccccc1)NC(=O)[C@H](CO)NC(=O)CNC(=O)[C@H](CC(=O)O)NC(=O)CNC(=O)[C@@H](N)Cc1c[nH]cn1)[C@@H](C)O)[C@@H](C)CC)C(=O)N[C@@H](CC(N)=O)C(=O)N[C@@H](Cc1c[nH]c2ccccc12)C(=O)N[C@@H](CC(C)C)C(=O)N[C@H](C(=O)N[C@@H](CCC(N)=O)C(=O)N[C@H](C(=O)N[C@@H](CCCCN)C(=O)N[C@H](C(=O)N[C@H](C(=O)N[C@@H](CC(=O)O)C(=O)O)[C@@H](C)O)[C@@H](C)CC)[C@@H](C)O)[C@@H](C)CC` [Teduglutide], for which the “% Binding of WT” value at GLP-2R Y182^1.43A came to 3.2 ± 1.3 %.

Take “HADGSFSDEMNTILDNLAAKEFIAWLVKGRG [Chimeric GLP-1/GLP-2 (20-33)]”: at GLP-2R Y252^ECL1A (Table S5, Y252A), the Emax is 104 ± 2.1% and the EC50 was 3.98 nM.

Consider “HADGSFTSDVSSYLEGQAARDFINWLIQTKITD [Chimeric GLP-1/GLP-2 (7-19)]”, for which, on GLP-2R Y252^ECL1A (Table S5, Y252A), the Emax stood at 106 ± 5.1% and the EC50 was 50.1 nM.
